Test [1] addresses Serine/threonine-protein kinase PAK 1 (Homo sapiens) (UniProt Q13153). In words: Inhibition of PAK1 (unknown origin) assessed as residual activity at 1000 nM by KINOMEscan analysis relative to control.
The target in test [2] is T1, Serine/threonine-protein kinase ULK1 (Homo sapiens) (UniProt O75385).
T1 sequence (whole entry): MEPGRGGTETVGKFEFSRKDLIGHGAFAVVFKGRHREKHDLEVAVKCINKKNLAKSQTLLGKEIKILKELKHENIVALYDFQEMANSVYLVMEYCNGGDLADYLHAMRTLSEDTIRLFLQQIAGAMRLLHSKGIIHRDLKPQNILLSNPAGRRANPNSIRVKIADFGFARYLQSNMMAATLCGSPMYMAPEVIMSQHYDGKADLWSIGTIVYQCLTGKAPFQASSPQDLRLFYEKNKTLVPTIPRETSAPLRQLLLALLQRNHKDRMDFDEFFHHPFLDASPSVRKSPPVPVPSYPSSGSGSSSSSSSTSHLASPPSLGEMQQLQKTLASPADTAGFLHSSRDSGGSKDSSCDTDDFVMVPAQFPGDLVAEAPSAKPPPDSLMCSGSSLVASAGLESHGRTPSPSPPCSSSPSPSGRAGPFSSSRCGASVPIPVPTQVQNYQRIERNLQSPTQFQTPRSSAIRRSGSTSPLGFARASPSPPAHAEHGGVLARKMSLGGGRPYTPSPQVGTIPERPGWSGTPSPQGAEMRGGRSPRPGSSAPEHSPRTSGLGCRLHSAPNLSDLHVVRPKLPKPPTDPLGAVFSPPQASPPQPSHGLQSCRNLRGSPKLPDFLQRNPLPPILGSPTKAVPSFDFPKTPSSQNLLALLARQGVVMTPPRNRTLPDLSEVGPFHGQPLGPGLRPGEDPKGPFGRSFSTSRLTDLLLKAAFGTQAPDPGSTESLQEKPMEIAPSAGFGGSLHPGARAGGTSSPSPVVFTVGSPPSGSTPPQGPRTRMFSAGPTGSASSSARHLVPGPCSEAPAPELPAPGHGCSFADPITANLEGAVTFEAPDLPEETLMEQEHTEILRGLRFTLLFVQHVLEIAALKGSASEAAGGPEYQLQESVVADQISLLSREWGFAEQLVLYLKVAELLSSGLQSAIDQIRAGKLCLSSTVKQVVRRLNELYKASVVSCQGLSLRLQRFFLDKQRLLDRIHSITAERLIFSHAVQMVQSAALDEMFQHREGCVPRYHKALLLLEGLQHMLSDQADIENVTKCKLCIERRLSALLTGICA
In words: Inhibition of ULK1 (unknown origin) assessed as residual activity at 1000 nM by KINOMEscan analysis relative to control.

Test [3] deals with Mast/stem cell growth factor receptor Kit (Homo sapiens), P10721 [V559D,V654A]. In words: Inhibition of KIT V559D/V654A mutant (unknown origin) assessed as residual activity at 1000 nM by KINOMEscan analysis relative to control.
Chain of Mast/stem cell growth factor receptor Kit (Homo sapiens), P10721 [V559D,V654A] (P10721 whole entry V559D/V654A): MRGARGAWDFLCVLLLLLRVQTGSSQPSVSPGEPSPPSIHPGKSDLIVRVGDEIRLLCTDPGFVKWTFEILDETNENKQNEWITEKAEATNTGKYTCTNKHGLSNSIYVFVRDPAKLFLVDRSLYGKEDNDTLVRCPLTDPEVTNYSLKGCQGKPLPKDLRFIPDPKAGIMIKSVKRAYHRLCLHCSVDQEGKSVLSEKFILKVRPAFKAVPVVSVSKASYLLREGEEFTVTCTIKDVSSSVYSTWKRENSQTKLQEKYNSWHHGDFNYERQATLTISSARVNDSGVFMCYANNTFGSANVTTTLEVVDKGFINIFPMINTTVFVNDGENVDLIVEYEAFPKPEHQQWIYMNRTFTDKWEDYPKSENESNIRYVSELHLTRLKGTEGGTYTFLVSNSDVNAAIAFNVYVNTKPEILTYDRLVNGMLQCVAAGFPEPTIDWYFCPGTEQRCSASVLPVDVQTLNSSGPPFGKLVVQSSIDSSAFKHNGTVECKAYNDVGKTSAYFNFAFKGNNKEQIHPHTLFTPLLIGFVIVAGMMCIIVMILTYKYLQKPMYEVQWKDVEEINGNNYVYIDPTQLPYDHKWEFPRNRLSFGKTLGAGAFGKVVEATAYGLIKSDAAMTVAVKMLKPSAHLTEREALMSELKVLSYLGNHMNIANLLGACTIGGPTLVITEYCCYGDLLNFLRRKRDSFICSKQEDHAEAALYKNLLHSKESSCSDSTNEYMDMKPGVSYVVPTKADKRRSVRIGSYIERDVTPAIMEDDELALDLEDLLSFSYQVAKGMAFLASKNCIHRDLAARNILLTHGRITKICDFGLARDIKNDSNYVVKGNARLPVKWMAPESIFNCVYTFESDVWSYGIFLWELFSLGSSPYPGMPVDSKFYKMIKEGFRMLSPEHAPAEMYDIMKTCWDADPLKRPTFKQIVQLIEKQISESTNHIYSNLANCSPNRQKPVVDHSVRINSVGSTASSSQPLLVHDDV
The target of test [4] is T2, Ephrin type-A receptor 1 (Homo sapiens) (UniProt P21709).
T2 sequence (whole entry): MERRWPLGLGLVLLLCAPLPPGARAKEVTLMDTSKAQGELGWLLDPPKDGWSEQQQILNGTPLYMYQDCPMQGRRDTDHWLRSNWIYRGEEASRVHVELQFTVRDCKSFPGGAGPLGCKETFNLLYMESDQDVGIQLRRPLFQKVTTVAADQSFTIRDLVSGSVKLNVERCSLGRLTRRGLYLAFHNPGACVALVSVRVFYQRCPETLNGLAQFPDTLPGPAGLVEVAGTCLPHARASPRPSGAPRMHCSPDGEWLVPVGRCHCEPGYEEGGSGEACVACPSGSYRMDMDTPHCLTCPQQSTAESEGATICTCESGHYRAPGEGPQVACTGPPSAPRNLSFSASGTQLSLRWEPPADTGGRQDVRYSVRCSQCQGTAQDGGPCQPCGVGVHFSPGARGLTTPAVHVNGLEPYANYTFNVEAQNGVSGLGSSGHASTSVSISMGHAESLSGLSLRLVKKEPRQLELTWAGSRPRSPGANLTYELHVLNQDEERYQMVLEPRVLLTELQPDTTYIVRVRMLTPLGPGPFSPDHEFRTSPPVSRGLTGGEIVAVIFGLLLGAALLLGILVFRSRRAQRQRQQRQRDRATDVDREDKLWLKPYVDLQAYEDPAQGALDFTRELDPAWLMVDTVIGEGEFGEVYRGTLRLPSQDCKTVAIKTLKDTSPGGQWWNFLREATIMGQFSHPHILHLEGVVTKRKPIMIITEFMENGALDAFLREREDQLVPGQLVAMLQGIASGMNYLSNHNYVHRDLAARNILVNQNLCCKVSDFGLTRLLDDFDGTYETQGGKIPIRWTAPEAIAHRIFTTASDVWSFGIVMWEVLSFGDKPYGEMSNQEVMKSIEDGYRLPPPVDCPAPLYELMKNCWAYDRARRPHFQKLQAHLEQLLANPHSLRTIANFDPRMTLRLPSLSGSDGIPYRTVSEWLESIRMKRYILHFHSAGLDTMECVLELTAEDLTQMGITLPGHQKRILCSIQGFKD
In words: Inhibition of EPHA1 (unknown origin) assessed as residual activity at 1000 nM by KINOMEscan analysis relative to control.

Chain of Serine/threonine-protein kinase PAK 1 (Homo sapiens) (Q13153 whole entry, looked up): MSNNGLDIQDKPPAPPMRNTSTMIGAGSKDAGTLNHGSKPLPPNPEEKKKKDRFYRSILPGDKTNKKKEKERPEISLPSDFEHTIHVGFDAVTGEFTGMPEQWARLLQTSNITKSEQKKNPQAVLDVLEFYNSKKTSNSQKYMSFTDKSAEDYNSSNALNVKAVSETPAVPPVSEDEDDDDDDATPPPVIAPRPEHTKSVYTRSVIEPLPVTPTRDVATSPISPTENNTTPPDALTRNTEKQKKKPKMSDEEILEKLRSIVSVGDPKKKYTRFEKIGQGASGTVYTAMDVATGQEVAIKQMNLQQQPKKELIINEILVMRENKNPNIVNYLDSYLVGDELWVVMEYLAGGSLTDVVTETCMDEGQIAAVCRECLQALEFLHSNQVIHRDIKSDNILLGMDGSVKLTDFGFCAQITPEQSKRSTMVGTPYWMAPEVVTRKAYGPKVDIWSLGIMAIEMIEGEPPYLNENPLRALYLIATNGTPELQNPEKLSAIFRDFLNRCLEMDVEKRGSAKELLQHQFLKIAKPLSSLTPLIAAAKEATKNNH

With `COc1cc2ncnc(N[C@H](C)c3cccc4ccccc34)c2cc1OC`, the Activity in test [1] came to 90%; in test [2], 87%; in test [3], 100%; in test [4] it was 100%.

Take `COc1cc2nc(C)nc(N[C@H](C)c3cccc(-c4cn[nH]c4)c3)c2cc1OC`: the Activity in test [1] came to 62%; in test [2], 97%; in test [3], 92%; in test [4], 39%.
